Reference: patent US9416144B2, “Benzoxazine oxazolidinone compound, preparation method and application thereof” (priority 2012, dated 2016)
Values after ≈ are worked out from the molar mass of the structure shown. Values joined by “and” are separate entries in the source; they are usually repeats but may differ in a detail not shown here. Equal values may be shown once. Read-outs that look alike come from different tables or passages of the source.

What was measured:
Enterococcus (6 strains) = assay: In vitro antibacterial activity, MIC by agar double dilution method; assay type: cell-based; conditions: clinical isolates, 35° C. 16 hrs
Excerpt: (§1) Experimental method: The agar double dilution method (Antimicrob. Agents and Chemother, 40, 1996, 720-726) was used to determine the minimum inhibitory concentration (MIC) of the series of compounds of the invention and the positive control drug linezolid for the test strains. The multipoint inoculation system (Denley A400) was employed to inoculate the bacteria on the agar plate surface with different concentrations of drugs; inoculation amount on each point was about 10^6 CFU/mL. The plates were incubated at 35° C. for 16 hrs before the results were observed. The lowest drug concentration contained in the Petri dish without bacterial growth was used as the minimum inhibitory concentration (MIC value) of the drug fir that strain.
(§2) Test strains: All the test strains were clinically isolated pathogens which were collected from the Nanjing region, and they were re-identified by routine methods before use. 31 strains of the clinically isolated pathogens were chosen, including 6 strains of Enterococcus, 5 Staphylococcus aureus sensitive strains; 5 Staphylococcus epidermidis sensitive strains; 6 Staphylococcus aureus resistant strains; 5 Staphylococcus epidermidis resistant strains; and 4 Streptococcus pneumoniae resistant strains.
(§3) Compounds to be tested were first added 2 ml of DMSO to help them fully dissolved, then added sterile double distilled water to the desired concentration; to all the Petri dish with added drug liquid were added 20 mL MIT medium which was heat-melted to be liquid-like, to make the final drug concentration in the Petri dish to be 64, 32, 16, 8, 4, 2, 1, 0.5, 0.25, 0.125, 0.0625, and 0.031 μg/mL.
(§4) The positive control group was LZ (linezolid, brand name Zyvox, approved by the FDA in 2000 to be firstly sold in the United States, which is the first and also the only one of oxazolidinone antibacterial drugs allowed to enter clinical application).

[1] = test system: Staphylococcus aureus resistant strains (6 strains); assay: as above; assay type: cell-based; conditions: clinical isolates
Excerpt: as §1, §2, §3, §4

[2] = test system: Staphylococcus aureus sensitive strains (5 strains); assay: as above; assay type: cell-based; conditions: clinical isolates
Excerpt: as §1, §2, §3, §4

[3] = test system: Staphylococcus epidermidis resistant strains (5 strains); assay: as above; assay type: cell-based; conditions: clinical isolates
Excerpt: as §1, §2, §3, §4

[4] = test system: Staphylococcus epidermidis sensitive strains (5 strains); assay: as above; assay type: cell-based; conditions: clinical isolates
Excerpt: as §1, §2, §3, §4

[5] = test system: Streptococcus pneumoniae resistant strains (4 strains); assay: as above; assay type: cell-based; conditions: clinical isolates
Excerpt: as §1, §2, §3, §4

[6] = In vivo pharmacokinetic assays in rats (intragastric and intravenous), plasma Compound 14 by LC-MS/MS; design: species or system SD rats
Experimental: Two routes of administration (intragastric administration and intravenous injection) were employed.
Intragastric administration: Four healthy SD rats, male, weight 200-250 g, were dosed 15 mg/kg; the delivery volume was 10 ml/kg, prepared with 0.5% CMC-Na. The rats were fasted for 12 hrs before administration, free water-drinking. 0.3 ml of venous blood was taken from the posterior venous plexus of rats to heparinized tubes at 0.25, 0.5, 1.0, 2.0, 3.0, 4.0, 5.0, 7.0, 9.0, 24, and 48 hrs after administration, centrifuged at 3500 rpm for 10 mins to separate the plasma, which was then stored at −20° C. for test.
Intravenous injection: Two healthy SD rats, male, weight 200˜250 g, were dosed 5 mg/kg; the delivery volume was 10 ml/kg, prepared with DMSO, Tween 80 and deionized water. The rats were fasted for 12 hrs before administration, free water-drinking. 0.3 ml of venous blood was taken from the posterior venous plexus of rats to heparinized tubes at 5 min, 15 min, and 0.5, 1.0, 2.0, 3.0, 4.0, 5.0, 7.0, 9.0, 24, and 48 hrs after administration, centrifuged at 3500 rpm for 10 mins to separate the plasma, which was then stored at −20° C. for test.
The concentration of Compound 14 in plasma was determined by liquid chromatography tandem mass spectrometry.
In accordance with the above experimental methods, the inventor has determined the in vivo pharmacokinetic properties of phosphate (ester) disodium salt 37 of Compound 14 in rats.

[7] = as above; design: species or system SD rats; conditions: rats
[8] = 15 mg/kg Compound 14 intragastric, individual animals No. 15-18, 15 mg/kg
[9] = male, SD, rat, in vivo, po, 15 mg/kg, 15 mg/kg Compound 14 intragastric, average value
[10] = male, SD, rat, in vivo, po, 15 mg/kg, 15 mg/kg Compound 14 intragastric, individual animals No. 15-18
[11] = male, SD, rat, in vivo, iv, 5 mg/kg, 5 mg/kg Compound 14 intravenous injection, average value
[12] = 5 mg/kg Compound 14 intravenous injection, individual animals No. 19-21, 5 mg/kg

Structure (SMILES): O=C1O[C@@H](CO)[C@@H]2COc3cc(-c4ccc(C(O)CO)nc4)ccc3N12 (stereo partly drawn) [Compound 4, (3R,3aS)-7-(6-(1,2-dihydroxylethyl)pyridin-3-yl)-3-(hydroxylmethyl)-3a,4-dihydrobenzo[b]oxazolo[3,4-d][1,4]oxazin-1(3H)-one]
- MIC (Enterococcus (6 strains)): 1 to 2 µg/mL (≈ 2.79 to 5.58 µM)
- MIC [1]: 0.5 to 1 µg/mL (≈ 1.4 to 2.79 µM)
- MIC [2]: 0.5 to 1 µg/mL (≈ 1.4 to 2.79 µM)
- MIC [3]: 0.5 µg/mL (≈ 1.4 µM)
- MIC [4]: 0.5 µg/mL (≈ 1.4 µM)
- MIC [5]: 1 to 2 µg/mL (≈ 2.79 to 5.58 µM)
- melting point: 150 to 152 °C

Structure (SMILES): O=C1O[C@@H](CO)[C@@H]2COc3cc(-c4ccc(N5CCC(O)CC5)nc4)ccc3N12 [Compound 11, (3R,3aS)-3-(hydroxylmethyl)-7-(6-(4-hydroxylpiperidin-1-yl)pyridin-3-yl)-3a,4-dihydrobenzo[b]oxazolo[3,4-d][1,4]oxazin-1(3H)-one]
- MIC (Enterococcus (6 strains)): 16 µg/mL (≈ 40.3 µM)
- MIC [1]: 4 µg/mL (≈ 10.1 µM)
- MIC [2]: 2 to 4 µg/mL (≈ 5.03 to 10.1 µM)
- MIC [3]: 8 µg/mL (≈ 20.1 µM)
- MIC [4]: 2 to 4 µg/mL (≈ 5.03 to 10.1 µM)
- MIC [5]: 2 to 8 µg/mL (≈ 5.03 to 20.1 µM)
- melting point: > 198 °C

Structure (SMILES): CC(=O)c1ccc(-c2ccc3c(c2)OC[C@H]2[C@H](CO)OC(=O)N32)cn1 [Compound 13, (3R,3aS)-7-(6-acetylpyridin-3-yl)-3-(hydroxylmethyl)-3a,4-dihydrobenzo[b]oxazolo[3,4-d][1,4]oxazin-1(3H)-one]
- MIC (Enterococcus (6 strains)): 2 µg/mL (≈ 5.88 µM)
- MIC [1]: 2 to 4 µg/mL (≈ 5.88 to 11.8 µM)
- MIC [2]: 2 to 4 µg/mL (≈ 5.88 to 11.8 µM)
- MIC [3]: 4 to 8 µg/mL (≈ 11.8 to 23.5 µM)
- MIC [4]: 4 µg/mL (≈ 11.8 µM)
- MIC [5]: 8 to 16 µg/mL (≈ 23.5 to 47 µM)
- melting point: 199 to 201 °C

Structure (SMILES): CN1CC(c2ccc(-c3ccc4c(c3)OC[C@H]3[C@H](CO)OC(=O)N43)cn2)OC1=O (stereo partly drawn) [Compound 14, (3R,3aS)-3-(hydroxylmethyl)-7-(6-(3-methyl-2-oxazolidin-5-yl)pyridin-3-yl)-3a,4-dihydrobenzo[b]oxazolo[3,4-d][1,4]oxazin-1(3H)-one]
- MIC (Enterococcus (6 strains)): 1 to 2 µg/mL (≈ 2.52 to 5.03 µM)
- MIC [1]: 0.5 to 1 µg/mL (≈ 1.26 to 2.52 µM)
- MIC [2]: 0.5 to 1 µg/mL (≈ 1.26 to 2.52 µM)
- MIC [3]: 0.25 to 1 µg/mL (≈ 0.629 to 2.52 µM)
- MIC [4]: 0.25 to 0.5 µg/mL (≈ 0.629 to 1.26 µM)
- MIC [5]: 1 µg/mL (≈ 2.52 µM)
- AUC0-t [6, 8]: 2174 ng·h/mL and 2095 ng·h/mL and 2374 ng·h/mL
- AUC0-∞ [6, 8]: 2290 ng·h/mL and 2165 ng·h/mL and 2440 ng·h/mL
- Cmax [6, 8]: 474 ng/mL and 766 ng/mL and 878 ng/mL and 1117 ng/mL
- MRT [6, 8]: 2.93 h and 2.03 h and 2.23 h
- Tmax [6, 8]: 2.00 h and 0.50 h
- t1/2 [6, 8]: 1.64 h and 2.34 h and 1.45 h
- clearance ([6]; male, SD, rat, in vivo, 5 mg/kg Compound 14 intravenous injection, average value, read-out: CLz (plasma clearance) (converted)): 53.7 mL/min/kg
- bioavailability ([6]; male, SD, rat, in vivo, 15 mg/kg, 15 mg/kg Compound 14 intragastric vs 5 mg/kg intravenous, dose corrected, read-out: F (absolute bioavailability)): 44.8%
- Vd ([6]; male, SD, rat, in vivo, iv, 5 mg/kg, 5 mg/kg Compound 14 intravenous injection, average value, read-out: Vss (distribution volume)): 2.39 ± 0.42 L/kg
- half-life [6, 9]: 1.93 ± 0.45 h
- AUC(0-inf) [6, 10]: 1770 ng·h/mL
- AUC(0-inf) [7, 11]: 1560 ng·h/mL
- half-life [7, 11]: 2.51 ± 0.92 h
- AUC0-t ([7]; male, SD, rat, in vivo, iv, 5 mg/kg, 5 mg/kg Compound 14 intravenous injection, average value, read-out: AUC0-t): 1540 ± 54 ng·h/mL
- MRT ([7]; male, SD, rat, in vivo, iv, 5 mg/kg, 5 mg/kg Compound 14 intravenous injection, average value, read-out: MRT): 0.74 h
- AUC(0-inf) ([7]; male, SD, rat, in vivo, iv, 5 mg/kg, 5 mg/kg Compound 14 intravenous injection, individual animals No. 19-21): 1600 ng·h/mL
- AUC0-t ([7]; male, SD, rat, in vivo, iv, 5 mg/kg, 5 mg/kg Compound 14 intravenous injection, individual animals No. 19-21, read-out: AUC0-t): 1600 ng·h/mL
- MRT ([7]; male, SD, rat, in vivo, iv, 5 mg/kg, 5 mg/kg Compound 14 intravenous injection, individual animals No. 19-21, read-out: MRT): 0.61 h
- Vd ([7]; male, SD, rat, in vivo, iv, 5 mg/kg, 5 mg/kg Compound 14 intravenous injection, individual animals No. 19-21, read-out: Vss): 1.9 L/kg
- AUC(0-inf) [7, 9]: 2170 ng·h/mL
- Cmax [7, 9]: 809 ± 267 ng/mL
- Tmax [7, 9]: 1 ± 0.71 h
- AUC0-t ([7]; male, SD, rat, in vivo, po, 15 mg/kg, 15 mg/kg Compound 14 intragastric, average value, read-out: AUC0-t): 2070 ± 319 ng·h/mL
- MRT ([7]; male, SD, rat, in vivo, po, 15 mg/kg, 15 mg/kg Compound 14 intragastric, average value, read-out: MRT): 2.64 h
- half-life [7, 10]: 2.29 h
- AUC0-t ([7]; male, SD, rat, in vivo, po, 15 mg/kg, 15 mg/kg Compound 14 intragastric, individual animals No. 15-18, read-out: AUC0-t): 1620 ng·h/mL
- MRT ([7]; male, SD, rat, in vivo, po, 15 mg/kg, 15 mg/kg Compound 14 intragastric, individual animals No. 15-18, read-out: MRT): 3.36 h
- AUC0-t [7, 12]: 1490 ng·h/mL and 1526 ng·h/mL
- AUC0-∞ [7, 12]: 1510 ng·h/mL and 1555 ng·h/mL
- CLz [7, 12]: 52 mL/min/kg and 55.2 mL/min/kg and 53.7 mL/min/kg
- MRT [7, 12]: 0.79 h and 0.82 h
- Vss [7, 12]: 2.62 L/kg and 2.64 L/kg
- t1/2 [7, 12]: 1.62 h and 2.46 h and 3.45 h
- F (absolute bioavailability) ([7]; 15 mg/kg Compound 14 intragastric vs 5 mg/kg intravenous, dose corrected): 44%

Structure (SMILES): Cc1cc(C#N)ncc1-c1ccc2c(c1)OC[C@H]1[C@H](CO)OC(=O)N21 [Compound 21, 5-((3R,3aS)-3-(hydroxylmethyl)-1-oxo-1,3,3a,4-tetrahydrobenzo[b]oxazolo[3,4-d][1,4]oxazin-7-yl)-4-methylpicolinonitrile]
- MIC (Enterococcus (6 strains)): 4 to 8 µg/mL (≈ 11.9 to 23.7 µM)
- MIC [1]: 0.5 to 1 µg/mL (≈ 1.48 to 2.96 µM)
- MIC [2]: 0.25 to 0.5 µg/mL (≈ 0.741 to 1.48 µM)
- MIC [3]: 0.25 to 1 µg/mL (≈ 0.741 to 2.96 µM)
- MIC [4]: 0.25 to 0.5 µg/mL (≈ 0.741 to 1.48 µM)
- MIC [5]: 1 to 2 µg/mL (≈ 2.96 to 5.93 µM)
- melting point: 238 to 240 °C

Structure (SMILES): Cc1cc(N2CCOC2=O)ncc1-c1ccc2c(c1)OC[C@H]1[C@H](CO)OC(=O)N21 [Compound 22, (3R,3aS)-3-(hydroxylmethyl)-7-(4-methyl-6-(2-oxooxazolidin-3-yl)pyridin-3-yl)-3a,4-dihydrobenzo[b]oxazolo[3,4-d][1,4]oxazin-1(3H)-one]
- MIC (Enterococcus (6 strains)): 4 to 16 µg/mL (≈ 10.1 to 40.3 µM)
- MIC [1]: 0.5 to 1 µg/mL (≈ 1.26 to 2.52 µM)
- MIC [2]: 0.5 to 1 µg/mL (≈ 1.26 to 2.52 µM)
- MIC [3]: 1 µg/mL (≈ 2.52 µM)
- MIC [4]: 0.5 to 1 µg/mL (≈ 1.26 to 2.52 µM)
- MIC [5]: 2 µg/mL (≈ 5.03 µM)
- melting point: 245 to 246 °C
